Experiments:
Assay type in all cases: cell-based, mice
[1] = test system: peritoneal macrophages; experiment: In vitro training and re-stimulation of peritoneal macrophages (Example 2), TNF-α ELISA
Method: Isolation and culture of peritoneal macrophages. Mice were euthanized with CO2 inhalation and injected i.p. with 5 ml of sterile cold, complete DMEM medium (Sigma Aldrich) followed by gentle massage of the peritoneum. The peritoneal fluid was then collected, centrifuged at 1600 rpm for 5 min. The cell pellet was washed, counted, and plated at appropriate numbers in complete DMEM. The cells were incubated for 2-4 hours at 37° C. and 5% CO2 to allow peritoneal macrophages attached to the plates. The floating cells were aspirated and plates were gently washed with sterile pre-warmed medium and then added with fresh complete DMEM. For comparison studies between different mouse strains, peritoneal cells were stained with viability dye and anti-F4/80 antibodies (Biolegend) and F4/80^+ macrophages were sorted by FACS Aria III (BD Bioscience).
In vitro training and re-stimulation of peritoneal macrophages. Peritoneal macrophages were treated with 25 μg/ml of WGP or polystyrene beads (3 μm, Sigma-Aldrich) and incubated for 24 h at 37°° C. with 5% CO2. Macrophages were then washed with pre-warmed complete DMEM at least twice to remove excess WGP or polystyrene beads, added with fresh complete DMEM and incubated 6 days. On day 7, macrophages were re-stimulated with different stimuli such as LPS (10 ng/ml) (Sigma), tumor cells, tumor cell culture supernatants (40%) or rMIF (100 ng/ml) (kindly provided by Dr. Robert Mitchell) for 24 h. The culture supernatants were harvested and assayed for TNF-α by ELISA. For cell culture supernatants, tumor cell lines including LLC, B16F10, and EL4, and control cell line MLE-12 were used.
These cell lines were cultured (1 million/4 ml complete DMEM) in a 6-well plate and incubated for 72 h. The supernatants were harvested and stored at −80° C. in aliquots.
ELISA for TNF-α and MIF. TNF-α in the culture supernatants was measured using TNF-α ELISA kit (Biolegend) and MIF levels in the culture supernatants were quantified using mouse MIF ELISAkit (R&D Systems) per the manufacturer's instruction.
In vitro training with S1P. Peritoneal macrophages were stimulated with 200 nM or 300 nM of S1P for 24 h at 37° C. and 5% CO2. The macrophages were then washed and allowed for resting. On day 7, the macrophages were stimulated with LPS (10 ng/ml) or LLC culture supernatant (40%) for 24 h and the supernatants were collected for the quantification of TNF-α using ELISA. For another set of in vitro-training experiment, macrophages were trained with S1P in the presence of Mdivi-1 (10 μM) during S1P training and throughout the resting period. Cells were restimulated with LPS and the supernatants were collected to determine TNF-α levels by ELISA.
[…] The inhibitors were further added to the macrophage cultures and incubated at 37° C. and 5% CO2 for 6 more days. On day 7, the macrophages were washed once with pre-warmed complete DMEM and added LPS (10 ng/ml) or LLC culture supernatant (40%) for re-stimulation.

[2] = test system: peritoneal macrophages; experiment: Mitochondrial ROS quantitation (MitoSox Red); conditions: peritoneal macrophages, 24 h
Method: (§1) Mitochondrial ROS quantitation. Peritoneal macrophages were treated with WGP or S1P in the presence or absence of Mdivi-1 and incubated at 37° C. with 5% CO2 for 24 h. The cells were then harvested, washed with PBS and pelleted by centrifugation at 1600 rpm for 5 min at room temperature. The pellets were then stained with MitoSOX Red dye (5 μM) (Invitrogen) at 37° C. for 15 min. The cells were washed with pre-warmed HBSS followed by another wash with PBS at room temperature. The cells were then stained with viability dye and anti-F4/80 and then acquired by flow cytometry. Flow cytometry for p-Drp-1. Peritoneal macrophages were treated with WGP (25 μg/ml) or S1P (1 μM) and incubated at 37° C. with 5% CO2 for 3-4 h. Following the completion of incubation, the cells were quickly washed with cold PBS to stop the activation. The cells were harvested and washed with PBS. The cells were then fixed with 4% formaldehyde for 15 min at room temperature, washed with PBS and permeabilized using ice-cold 100% methanol on ice for a minimum of 10 min. The cells were then stained with primary antibody (p-Drp1) (Cell Signaling) for 1 hour at room temperature followed by secondary antibody (Anti-rabbit IgG) (Biolegend) for 30 min at room temperature as instructed in the Cell Signaling phospho-stain protocol and analyzed using flow cytometry.

[3] = test system: Drp-1; experiment: p-Drp-1 / Drp-1 by flow cytometry and Western blot
Method: as §1
Western blot analysis for total Drp-1 and p-Drp-1. […]

[4] = test system: KPC tumor cells; experiment: Cytotoxicity assay of pancreatic CD11b+ cells against KPCLuc+ cells; conditions: NAC 1 mM
Method: The pancreas from WGP and PBS treated mice were harvested and the CD11b^+ populations were isolated using magnetic CD11b^+ MicroBeads (Miltenyi Biotec) and an autoMACS Pro Separator (Miltenyi Biotec). Purified CD11b^+ cells were then washed and counted, and these were plated at a ratio of 1:20 tumor:effector cells in a 96 well plate. All experimental samples were run in triplicate. After plating the CD11b^+ cells, the ROS inhibitor […] (NAC) (Sigma Aldrich) was added to one set of PBS and WGP derived cells at 1 mM for 1 hour before the addition of 5000 luciferase expressing KPC^+ pancreatic tumor cells to all wells. After 24 hours, of coculture, the plates were centrifuged and 20 μL of the supernatant was mixed with 100 μL of the Luciferase Assay Reagent (Promega). Luciferase activity measured in the supernatant correlated with tumor cells that had been killed by the effector cells and was measured using a luminometer (Femtomaster FB 12, Zylux Corporation). The spontaneous luciferase signal from plated tumor cells was subtracted from the measurement of the supernatant. Luciferase values are represented as Relative Light Units (RLUs).

CCCCCCCCCCCCC/C=C/[C@@H](O)[C@@H](N)COP(=O)(O)O [S1P, sphingosine-1-phosphate]
TNF-α production of macrophages trained with S1P ([1]; S1P 200 nM or 300 nM, LPS or LLC supernatant restimulation): showed significantly higher TNF-α production compared to the untrained controls | mtROS production [2]: exhibited an enhanced mtROS production | phosphorylation of Drp-1 ([3]; peritoneal macrophages): significantly increased p-Drp-1 in macrophages

O=C(NCc1ccncc1)C12CC3CC(C1)CC(c1ccc(Cl)cc1)(C3)C2 [Sphk2i]
effect on WGP trained responses (TNF-α) ([1]; Sphk2i 25 μM or 50 μM, LPS and LLC supernatant): completely attenuated the trained responses | effect on p-Drp-1 in WGP-treated macrophages ([3]; Sphk2i 50 μM, 3 h and 6 h): decreased the level of p-Drp-1 but not total Drp-1

CCCC[C@@H](C)[C@@H](OC(=O)C[C@@H](CC(=O)O)C(=O)O)[C@H](C[C@@H](C)C[C@H](O)CCCC[C@@H](O)C[C@H](O)[C@H](C)N)OC(=O)C[C@@H](CC(=O)O)C(=O)O [Fumonisin-B1]
effect on WGP-mediated trained response (TNF-α) ([1]; Fumonisin-B1 25 μM, LPS and LLC supernatants): abrogated WGP-mediated trained response

CC(=O)N[C@@H](CS)C(=O)O [NAC, N-Acetyl Cysteine]
effect of ROS inhibition on WGP-elicited cytotoxicity [4]: completely abrogated the WGP-elicited increase in cytotoxicity

From patent US20250025490A1, “INDUCTION OF TRAINED IMMUNITY FOR THE TREATMENT OF HYPERPROLIFERATIVE DISORDERS” (priority 2021, published 2025)
